From patent US20250136578A1 (Kolm Therapeutics Inc., priority 2023, published 2025)
Like-named read-outs stand apart in the source and are kept apart here.

What was measured:
AR / CBP ternary complex = AR / CBP ternary complex (Homo sapiens, UniProt P10275+Q92793); assay: Ternary complex formation assay (sandwich ELISA, AR capture, CBP antibody detection) in VCaP cell lysates; type: cell-based
How it was run: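 VCaP cells in 5% charcoal-stripped FBS were cultured ≥3 days and then given bifunctional compound for 1.5 h. Lysates went onto AR-antibody-coated plates. Bound CBP (or p300) was detected with a rabbit antibody plus HRP anti-rabbit, using QuantaRed chemifluorescence (ex 570/em 585) read immediately, at 5 min and at 15 min.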

VCaP cells = assay: VCaP growth inhibition assay (CTG); type: cell-based; conditions: 30 pM R1881, 9 days
How it was run: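 VCaP cells in phenol red-free DMEM with 5% charcoal-stripped serum were stimulated with 30 pM R1881 (final) and treated with compound from 100 nM to 10 fM final (1:5 dilutions) for 9 days at 37 °C. Viability was read by CellTiter-Glo luminescence, and IC50 came from 4-parameter logistic fits.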

[1] = treated 1.5 hours, rabbit CBP or p300 antibody detection, average, read-out: Average Ternary Complex

Sequence of AR / CBP ternary complex (P10275 whole entry): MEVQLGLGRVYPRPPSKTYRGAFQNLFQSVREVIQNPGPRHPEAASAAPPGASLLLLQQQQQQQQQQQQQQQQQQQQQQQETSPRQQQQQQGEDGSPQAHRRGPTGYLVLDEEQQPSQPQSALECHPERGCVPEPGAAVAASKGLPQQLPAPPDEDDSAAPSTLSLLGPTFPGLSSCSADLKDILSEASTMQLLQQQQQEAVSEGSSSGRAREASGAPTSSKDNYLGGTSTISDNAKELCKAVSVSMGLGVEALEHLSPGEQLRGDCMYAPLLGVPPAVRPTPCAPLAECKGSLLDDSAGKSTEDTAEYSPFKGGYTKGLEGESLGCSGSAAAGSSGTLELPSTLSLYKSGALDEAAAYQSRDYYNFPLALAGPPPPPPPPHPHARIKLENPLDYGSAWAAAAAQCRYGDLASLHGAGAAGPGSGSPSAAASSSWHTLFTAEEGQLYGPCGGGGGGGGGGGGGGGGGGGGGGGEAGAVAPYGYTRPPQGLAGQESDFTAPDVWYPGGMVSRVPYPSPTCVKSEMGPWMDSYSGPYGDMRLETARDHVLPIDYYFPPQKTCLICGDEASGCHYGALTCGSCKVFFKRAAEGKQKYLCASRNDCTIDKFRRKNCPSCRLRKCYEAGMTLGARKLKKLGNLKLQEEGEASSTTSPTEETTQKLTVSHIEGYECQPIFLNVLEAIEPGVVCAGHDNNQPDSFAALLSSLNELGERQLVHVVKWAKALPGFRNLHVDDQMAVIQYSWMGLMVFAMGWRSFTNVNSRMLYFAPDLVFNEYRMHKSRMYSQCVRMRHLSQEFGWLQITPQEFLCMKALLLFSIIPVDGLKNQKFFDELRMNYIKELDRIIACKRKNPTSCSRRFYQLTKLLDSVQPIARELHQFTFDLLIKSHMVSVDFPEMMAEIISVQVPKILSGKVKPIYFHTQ
Sequence of AR / CBP ternary complex (Q92793 2-2442): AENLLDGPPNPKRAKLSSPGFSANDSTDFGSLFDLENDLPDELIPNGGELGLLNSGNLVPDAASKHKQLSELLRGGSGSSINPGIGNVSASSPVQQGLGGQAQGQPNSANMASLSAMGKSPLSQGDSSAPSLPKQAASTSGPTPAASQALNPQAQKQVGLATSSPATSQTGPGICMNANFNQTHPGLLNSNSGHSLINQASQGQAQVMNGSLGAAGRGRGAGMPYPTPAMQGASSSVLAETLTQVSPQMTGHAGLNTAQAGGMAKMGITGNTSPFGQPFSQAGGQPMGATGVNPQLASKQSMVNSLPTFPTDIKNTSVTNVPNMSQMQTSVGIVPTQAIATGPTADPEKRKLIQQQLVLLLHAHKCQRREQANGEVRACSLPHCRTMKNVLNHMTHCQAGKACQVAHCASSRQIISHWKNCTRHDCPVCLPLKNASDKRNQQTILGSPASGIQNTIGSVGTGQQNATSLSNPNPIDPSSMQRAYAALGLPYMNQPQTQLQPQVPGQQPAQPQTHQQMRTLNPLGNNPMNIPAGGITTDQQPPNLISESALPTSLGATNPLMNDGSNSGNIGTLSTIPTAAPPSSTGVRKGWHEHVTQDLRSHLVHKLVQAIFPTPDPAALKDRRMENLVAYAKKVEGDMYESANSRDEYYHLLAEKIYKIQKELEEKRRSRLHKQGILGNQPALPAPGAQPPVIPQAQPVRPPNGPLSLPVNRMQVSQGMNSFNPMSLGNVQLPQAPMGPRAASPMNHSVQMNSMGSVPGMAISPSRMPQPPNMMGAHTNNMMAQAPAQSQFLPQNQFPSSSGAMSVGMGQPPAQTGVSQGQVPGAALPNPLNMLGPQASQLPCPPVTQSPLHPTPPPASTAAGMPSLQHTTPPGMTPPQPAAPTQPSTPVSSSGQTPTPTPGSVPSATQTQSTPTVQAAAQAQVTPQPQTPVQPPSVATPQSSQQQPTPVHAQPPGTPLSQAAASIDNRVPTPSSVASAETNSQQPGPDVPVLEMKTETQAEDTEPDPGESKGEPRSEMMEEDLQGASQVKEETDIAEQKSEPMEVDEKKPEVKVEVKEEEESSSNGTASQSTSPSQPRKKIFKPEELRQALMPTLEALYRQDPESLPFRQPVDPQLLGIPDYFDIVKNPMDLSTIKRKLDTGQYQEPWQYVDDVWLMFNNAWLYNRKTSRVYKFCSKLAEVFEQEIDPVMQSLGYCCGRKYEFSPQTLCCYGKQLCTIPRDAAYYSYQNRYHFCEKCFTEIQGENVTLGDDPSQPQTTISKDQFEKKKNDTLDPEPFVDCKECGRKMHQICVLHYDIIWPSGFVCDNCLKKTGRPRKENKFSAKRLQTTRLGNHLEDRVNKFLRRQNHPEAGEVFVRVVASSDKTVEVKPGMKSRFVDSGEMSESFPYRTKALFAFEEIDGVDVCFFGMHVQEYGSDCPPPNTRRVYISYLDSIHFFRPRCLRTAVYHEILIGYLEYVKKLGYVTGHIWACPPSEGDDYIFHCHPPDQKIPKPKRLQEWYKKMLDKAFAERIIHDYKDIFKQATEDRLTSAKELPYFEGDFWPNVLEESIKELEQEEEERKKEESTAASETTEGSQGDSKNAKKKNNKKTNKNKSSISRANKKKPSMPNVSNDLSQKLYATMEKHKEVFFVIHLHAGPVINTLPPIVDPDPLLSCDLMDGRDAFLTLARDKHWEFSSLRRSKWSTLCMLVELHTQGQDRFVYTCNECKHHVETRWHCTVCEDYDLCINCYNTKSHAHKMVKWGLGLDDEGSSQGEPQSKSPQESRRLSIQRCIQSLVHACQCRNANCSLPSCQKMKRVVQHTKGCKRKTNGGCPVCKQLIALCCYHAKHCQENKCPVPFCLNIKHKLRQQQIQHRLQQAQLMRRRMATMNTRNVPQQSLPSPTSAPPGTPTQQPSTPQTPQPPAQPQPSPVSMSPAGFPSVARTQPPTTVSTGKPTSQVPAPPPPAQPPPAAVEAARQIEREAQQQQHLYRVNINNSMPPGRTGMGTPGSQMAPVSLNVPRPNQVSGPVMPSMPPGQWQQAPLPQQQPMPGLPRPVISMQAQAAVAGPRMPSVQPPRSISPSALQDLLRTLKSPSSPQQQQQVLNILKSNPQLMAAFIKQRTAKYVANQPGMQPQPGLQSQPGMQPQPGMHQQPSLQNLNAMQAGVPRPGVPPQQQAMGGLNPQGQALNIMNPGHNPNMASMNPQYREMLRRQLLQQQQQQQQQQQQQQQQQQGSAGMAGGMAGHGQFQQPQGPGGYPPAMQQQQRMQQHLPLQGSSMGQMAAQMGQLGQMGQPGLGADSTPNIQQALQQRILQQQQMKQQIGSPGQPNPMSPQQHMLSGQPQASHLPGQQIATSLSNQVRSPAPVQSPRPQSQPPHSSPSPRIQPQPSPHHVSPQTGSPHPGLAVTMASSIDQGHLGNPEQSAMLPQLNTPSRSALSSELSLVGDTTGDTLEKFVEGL

| SMILES | EC50 (AR / CBP ternary complex; [1]) | IC50 (VCaP cells; Homo sapiens, 216 h) | IC50 (VCaP cells) | EC50 (AR / CBP ternary complex; read-out: Average Ternary Complex, treated 1.5 hours, rabbit CBP or p300 antibody detection) |
| --- | --- | --- | --- | --- |
| Cc1cc2c(N3CCN(C)c4cc(-c5cnn(C)c5)c(C#N)cc43)cc(OC3CCN(c4ccc(C(=O)N[C@H]5CC[C@H](Oc6ccc(C#N)c(Cl)c6)CC5)nn4)CC3)cc2n(C)c1=O [Compound 35, N-[4-(3-chloro-4-cyano-phenoxy)cyclohexyl]-6-[4-[[5-[7-cyano-4-methyl-6-(1-methylpyrazol-4-yl)-2,3-dihydroquinoxalin-1-yl]-1,3-dimethyl-2-oxo-7-quinolyl]oxy]-1-piperidyl]pyridazine-3-carboxamide] | > 100 nM | 0.1 to 1 nM | – | – |
| CC(=O)N1CCc2c(c(N3CCCc4cc(-c5cnn(C)c5)c(C(F)F)cc43)nn2C2CCN(C(=O)COC3CCN(c4ccc(C(=O)N[C@H]5CC[C@H](N(C)c6ccc(C#N)c(Cl)c6)CC5)cc4)CC3)CC2)C1 [Compound 12, 4-[4-[2-[4-[5-acetyl-3-[7-(difluoromethyl)-6-(1-methylpyrazol-4-yl)-3,4-dihydro-2H-quinolin-1-yl]-6,7-dihydro-4H-pyrazolo[4,3-c]pyridin-1-yl]-1-piperidyl]-2-oxo-ethoxy]-1-piperidyl]-N-[4-(3-chloro-4-cyano-N-methyl-anilino)cyclohexyl]benzamide] | – | ≤ 0.1 nM | – | < 1 nM |
| CC(=O)N1CCc2c(c(N3CCCc4cc(-c5cnn(C)c5)c(C(F)F)cc43)nn2[C@H]2CC[C@@H](OC3CN(c4ccc(C(=O)N[C@H]5CC[C@H](Oc6ccc(C#N)c(Cl)c6)CC5)nn4)C3)CC2)C1 [Compound 223, 6-[3-[4-[5-acetyl-3-[7-(difluoromethyl)-6-(1-methylpyrazol-4-yl)-3,4-dihydro-2H-quinolin-1-yl]-6,7-dihydro-4H-pyrazolo[4,3-c]pyridin-1-yl]cyclohexoxy]azetidin-1-yl]-N-[4-(3-chloro-4-cyano-phenoxy)cyclohexyl]pyridazine-3-carboxamide] | < 1 nM | ≤ 0.1 nM | – | – |
| CC(=O)N1CCc2c(c(N3CCCc4cc(-c5cnn(C)c5)c(C(F)F)cc43)nn2C2CCN([C@H]3CCCN(c4ccc(C(=O)N[C@H]5CC[C@H](Oc6ccc(C#N)c(Cl)c6)CC5)nn4)C3)CC2)C1 [Compound 258, 6-[(3S)-3-[4-[5-acetyl-3-[7-(difluoromethyl)-6-(1-methylpyrazol-4-yl)-3,4-dihydro-2H-quinolin-1-yl]-6,7-dihydro-4H-pyrazolo[4,3-c]pyridin-1-yl]-1-piperidyl]-1-piperidyl]-N-[4-(3-chloro-4-cyano-phenoxy)cyclohexyl]pyridazine-3-carboxamide] | 1 to 10 nM | 1 to 100 nM | – | – |
| CC(=O)N1CCc2c(c(N3CCCc4cc(-c5cnn(C)c5)c(C(F)F)cc43)nn2[C@H]2CC[C@H](C3CCC4(CC3)CN(c3ccc(C(=O)N[C@H]5CC[C@H](Oc6ccc(C#N)c(Cl)c6)CC5)nn3)C4)CC2)C1 [Compound 241, 6-[7-[4-[5-acetyl-3-[7-(difluoromethyl)-6-(1-methylpyrazol-4-yl)-3,4-dihydro-2H-quinolin-1-yl]-6,7-dihydro-4H-pyrazolo[4,3-c]pyridin-1-yl]cyclohexyl]-2-azaspiro[3.5]nonan-2-yl]-N-[4-(3-chloro-4-cyano-phenoxy)cyclohexyl]pyridazine-3-carboxamide] | 1 to 10 nM | 0.1 to 1 nM | – | – |
| CC(=O)N1CCc2c(c(N3CCCc4cc(-c5cnn(C)c5)c(C(F)F)cc43)nn2[C@H]2CC[C@H](OC3CCN(c4ccc(C(=O)N[C@H]5CC[C@H](Oc6ccc(C#N)c(Cl)c6)CC5)nn4)CC3)CC2)C1 [Compound 205, 6-[4-[4-[5-acetyl-3-[7-(difluoromethyl)-6-(1-methylpyrazol-4-yl)-3,4-dihydro-2H-quinolin-1-yl]-6,7-dihydro-4H-pyrazolo[4,3-c]pyridin-1-yl]cyclohexoxy]-1-piperidyl]-N-[4-(3-chloro-4-cyano-phenoxy)cyclohexyl]pyridazine-3-carboxamide] | < 1 nM | ≤ 0.1 nM | – | – |
| Cn1c(=O)sc2ccc(N3CCCc4cc(-c5ccc(CCC6CCN(c7ccc(C(=O)N[C@H]8CC[C@H](Oc9ccc(C#N)c(Cl)c9)CC8)nn7)CC6)nc5)ncc43)cc21 [Compound 57, N-[4-(3-chloro-4-cyano-phenoxy)cyclohexyl]-6-[4-[2-[5-[1-(3-methyl-2-oxo-1,3-benzothiazol-5-yl)-3,4-dihydro-2H-1,7-naphthyridin-6-yl]-2-pyridyl]ethyl]-1-piperidyl]pyridazine-3-carboxamide] | < 1 nM | 1 to 100 nM | – | – |
| COC(=O)N1c2ccc3c(nc(Cc4ccccc4)n3[C@H]3CCC[C@H](CN4CCN(c5ccc(C(=O)N[C@H]6CC[C@H](Oc7ccc(C#N)c(Cl)c7)CC6)nn5)CC4)C3)c2CC[C@@H]1C [Compound 232, methyl (7S)-2-benzyl-3-[(1S,3S)-3-[[4-[6-[[4-(3-chloro-4-cyano-phenoxy)cyclohexyl]carbamoyl]pyridazin-3-yl]piperazin-1-yl]methyl]cyclohexyl]-7-methyl-8,9-dihydro-7H-imidazo[4,5-f]quinoline-6-carboxylate] | 1 to 10 nM | 1 to 100 nM | – | – |

Now from value to compound, other results behind:

| EC50 (AR / CBP ternary complex; [1]) | IC50 (VCaP cells; Homo sapiens, 216 h) | IC50 (VCaP cells) | SMILES | EC50 (AR / CBP ternary complex; read-out: Average Ternary Complex, treated 1.5 hours, rabbit CBP or p300 antibody detection) |
| --- | --- | --- | --- | --- |
| < 1 nM | ≤ 0.1 nM | – | CC(=O)N1CCc2c(c(N3CCCc4cc(-c5ccn(C)n5)c(C(F)F)cc43)nn2C2CCN(CC3CCN(c4ccc(C(=O)N[C@H]5CC[C@H](Oc6ccc(C#N)c(Cl)c6)CC5)nn4)CC3)CC2)C1 [Compound 254, 6-[4-[[4-[5-acetyl-3-[7-(difluoromethyl)-6-(1-methylpyrazol-3-yl)-3,4-dihydro-2H-quinolin-1-yl]-6,7-dihydro-4H-pyrazolo[4,3-c]pyridin-1-yl]-1-piperidyl]methyl]-1-piperidyl]-N-[4-(3-chloro-4-cyano-phenoxy)cyclohexyl]pyridazine-3-carboxamide] | – |
| < 1 nM | 0.1 to 1 nM | – | CC(=O)N1CCc2c(c(-c3cccc4ccncc34)nn2C2CCN(CC3CCN(c4ccc(C(=O)N[C@H]5CC[C@H](Oc6ccc(C#N)c(Cl)c6)CC5)nn4)CC3)CC2)C1 [Compound 120, 6-[4-[[4-[5-acetyl-3-(8-isoquinolyl)-6,7-dihydro-4H-pyrazolo[4,3-c]pyridin-1-yl]-1-piperidyl]methyl]-1-piperidyl]-N-[4-(3-chloro-4-cyano-phenoxy)cyclohexyl]pyridazine-3-carboxamide] | – |
| < 1 nM | ≤ 0.1 nM | – | CC(=O)N1CCc2c(c(N3CCCc4cc(-c5cnn(C)c5)c(C(F)F)cc43)nn2[C@@H]2CCN(CC3CCN(c4ccc(C(=O)N[C@H]5CC[C@H](Oc6ccc(C#N)c(Cl)c6)CC5)nn4)CC3)C[C@H]2F)C1 [Compound 141, 6-[4-[[(3R,4R)-4-[5-acetyl-3-[7-(difluoromethyl)-6-(1-methylpyrazol-4-yl)-3,4-dihydro-2H-quinolin-1-yl]-6,7-dihydro-4H-pyrazolo[4,3-c]pyridin-1-yl]-3-fluoro-1-piperidyl]methyl]-1-piperidyl]-N-[4-(3-chloro-4-cyano-phenoxy)cyclohexyl]pyridazine-3-carboxamide] | – |
| < 1 nM | ≤ 0.1 nM | – | CC(=O)N1CCc2c(c(-c3cccc4cc(-c5cnn(C)c5)ncc34)nn2C2CCN(CCC3CCN(c4ccc(C(=O)N[C@H]5CC[C@H](Oc6ccc(C#N)c(Cl)c6)CC5)nn4)CC3)CC2)C1 [Compound 5, 6-[4-[2-[4-[5-acetyl-3-[3-(1-methylpyrazol-4-yl)-8-isoquinolyl]-6,7-dihydro-4H-pyrazolo[4,3-c]pyridin-1-yl]-1-piperidyl]ethyl]-1-piperidyl]-N-[4-(3-chloro-4-cyano-phenoxy)cyclohexyl]pyridazine-3-carboxamide] | – |
| < 1 nM | – | ≤ 0.1 nM | CC(=O)N1CCc2c(c(N3CCCc4cc(-c5cnn(C)c5)c(C(F)F)cc43)nn2C2CCN(C[C@H]3CCN(c4ccc(C(=O)N[C@H]5CC[C@H](Oc6ccc(C#N)c(Cl)c6)CC5)nn4)C[C@H]3C)CC2)C1 (stereo in doubt) [Compound 101, 6-[4-[[4-[5-acetyl-3-[7-(difluoromethyl)-6-(1-methylpyrazol-4-yl)-3,4-dihydro-2H-quinolin-1-yl]-6,7-dihydro-4H-pyrazolo[4,3-c]pyridin-1-yl]-1-piperidyl]methyl]-3-methyl-1-piperidyl]-N-[4-(3-chloro-4-cyano-phenoxy)cyclohexyl]pyridazine-3-carboxamide] | – |
| < 1 nM | 0.1 to 1 nM | – | CC(=O)N1CCc2c(c(N3CCCc4cc(C#N)ccc43)nn2C2CCN(CC3(C)CCN(c4ccc(C(=O)N[C@H]5CC[C@H](Oc6ccc(C#N)c(Cl)c6)CC5)nn4)CC3)CC2)C1 [Compound 102, 6-[4-[[4-[5-acetyl-3-(6-cyano-3,4-dihydro-2H-quinolin-1-yl)-6,7-dihydro-4H-pyrazolo[4,3-c]pyridin-1-yl]-1-piperidyl]methyl]-4-methyl-1-piperidyl]-N-[4-(3-chloro-4-cyano-phenoxy)cyclohexyl]pyridazine-3-carboxamide] | – |
| 10 to 100 nM | 0.1 to 1 nM | – | COc1cc2c(cn1)N(c1nn(C3CCN(CC4CCN(c5ccc(C(=O)N[C@H]6CC[C@H](Oc7ccc(C#N)c(Cl)c7)CC6)nn5)CC4)CC3)c3c1CN(C(C)=O)CC3)CCC2 [Compound 109, 6-[4-[[4-[5-acetyl-3-(6-methoxy-3,4-dihydro-2H-1,7-naphthyridin-1-yl)-6,7-dihydro-4H-pyrazolo[4,3-c]pyridin-1-yl]-1-piperidyl]methyl]-1-piperidyl]-N-[4-(3-chloro-4-cyano-phenoxy)cyclohexyl]pyridazine-3-carboxamide] | – |
